Key:
[1] = target: T1, Non-receptor tyrosine-protein kinase TYK2 (Homo sapiens, UniProt P29597); test: Inhibition of His-tagged TYK2 (unknown origin) after 3 hrs by Caliper assay
[2] = target: Serine/threonine-protein kinase 3 (Homo sapiens) (UniProt Q13188); test: Inhibition of human MST2 (D17 to E318 residues) expressed in bacterial expression system assessed as residual activity at 50 nM by KINOMEscan assay relative to control
[3] = target: 5'-AMP-activated protein kinase catalytic subunit alpha-1 (Homo sapiens) (UniProt Q13131); test: Inhibition of wild-type human partial length AMPK alpha1 (M1 to E306 residues) expressed in bacterial expression system assessed as residual activity at 50 nM by Kinomescan method relative to control
[4] = target: Serine/threonine-protein kinase 10 (Homo sapiens) (UniProt O94804); test: Inhibition of wild-type human partial length LOK (E16 to V314 residues) expressed in bacterial expression system assessed as residual activity at 50 nM by Kinomescan method relative to control
[5] = target: Serine/threonine-protein kinase 25 (Homo sapiens) (UniProt O00506); test: Inhibition of wild-type human partial length YSK1 (V14 to H295 residues) expressed in bacterial expression system assessed as residual activity at 50 nM by Kinomescan method relative to control
[6] = target: Aurora kinase B (Homo sapiens) (UniProt Q96GD4); test: Inhibition of wild-type human partial length AURB (D25 to A303 residues) expressed in mammalian expression system assessed as residual activity at 50 nM by Kinomescan method relative to control
[7] = target: Interleukin-1 receptor-associated kinase 3 (Homo sapiens) (UniProt Q9Y616); test: Inhibition of wild-type human partial length IRAK3 (V147 to E596 residues) expressed in bacterial expression system assessed as residual activity at 50 nM by Kinomescan method relative to control
[8] = target: TRAF2 and NCK-interacting protein kinase (Homo sapiens) (UniProt Q9UKE5); test: Inhibition of wild-type human partial length TNIK (D4 to K311 residues) expressed in bacterial expression system assessed as residual activity at 50 nM by Kinomescan method relative to control
[9] = target: Platelet-derived growth factor receptor alpha (Homo sapiens) (UniProt P16234); test: Inhibition of wild-type human partial length PDGFRA (V575 to D1002 residues) expressed in mammalian expression system assessed as residual activity at 50 nM by Kinomescan method relative to control
[10] = target: Homeodomain-interacting protein kinase 3 (Homo sapiens) (UniProt Q9H422); test: Inhibition of wild-type human partial length HIPK3 (M153 to N562 residues) expressed in mammalian expression system assessed as residual activity at 50 nM by Kinomescan method relative to control
[11] = target: Myosin-IIIa (Homo sapiens) (UniProt Q8NEV4); test: Inhibition of wild-type human partial length MYO3A (M1 to K338 residues) expressed in bacterial expression system assessed as residual activity at 50 nM by Kinomescan method relative to control
[12] = target: Hepatocyte growth factor receptor (Homo sapiens) (UniProt P08581); test: Inhibition of wild-type human partial length MET (D1010 to S1367 residues) expressed in bacterial expression system assessed as residual activity at 50 nM by Kinomescan method relative to control
[13] = target: Serine/threonine-protein kinase PAK 1 (Homo sapiens) (UniProt Q13153); test: Inhibition of wild-type human partial length PAK1 (S149 to H545 residues) expressed in bacterial expression system assessed as residual activity at 50 nM by Kinomescan method relative to control
[14] = target: Serine/threonine-protein kinase PLK3 (Homo sapiens) (UniProt Q9H4B4); test: Inhibition of wild-type human partial length PLK3 (A42 to L334 residues) expressed in mammalian expression system assessed as residual activity at 50 nM by Kinomescan method relative to control
[15] = target: Cyclin-dependent kinase 7 (Homo sapiens) (UniProt P50613); test: Inhibition of wild-type human full length CDK7 (M1 to L344 residues) expressed in mammalian expression system assessed as residual activity at 50 nM by Kinomescan method relative to control
[16] = target: Serine/threonine-protein kinase D3 (Homo sapiens) (UniProt O94806); test: Inhibition of wild-type human partial length PKD3 (S543 to E863 residues) expressed in bacterial expression system assessed as residual activity at 50 nM by Kinomescan method relative to control
[17] = target: Activin receptor type-1 (Homo sapiens) (UniProt Q04771); test: Inhibition of wild-type human ALK2 (C188 to C509 residues) expressed in bacterial expression system assessed as residual activity at 50 nM by Kinomescan method relative to control
[18] = target: Serine/threonine-protein kinase BRSK2 (Homo sapiens) (UniProt Q8IWQ3); test: Inhibition of wild-type human full length BRSK2 (M1 to L674 residues) expressed in bacterial expression system assessed as residual activity at 50 nM by Kinomescan method relative to control
[19] = target: Cyclin-dependent kinase 2 (Homo sapiens) (UniProt P24941); test: Inhibition of wild-type human full length CDK2 (M1 to L298 residues) expressed in bacterial expression system assessed as residual activity at 50 nM by Kinomescan method relative to control
[20] = target: Mitogen-activated protein kinase kinase kinase 15 (Homo sapiens) (UniProt Q6ZN16); test: Inhibition of wild-type human partial length MAP3K15 (T625 to L932 residues) expressed in mammalian expression system assessed as residual activity at 50 nM by Kinomescan method relative to control
[21] = target: Ribosomal protein S6 kinase alpha-5 (Homo sapiens) (UniProt O75582); test: Inhibition of wild-type human partial length N-terminal MSK1 kinase domain 1 expressed in bacterial expression system assessed as residual activity at 50 nM by Kinomescan method relative to control
[22] = target: Myosin-IIIb (Homo sapiens) (UniProt Q8WXR4); test: Inhibition of wild-type human partial length MYO3B (M1 to D357 residues) expressed in bacterial expression system assessed as residual activity at 50 nM by Kinomescan method relative to control
[23] = target: Serine/threonine-protein kinase Nek9 (Homo sapiens) (UniProt Q8TD19); test: Inhibition of wild-type human partial length NEK9 (P32 to R328 residues) expressed in bacterial expression system assessed as residual activity at 50 nM by Kinomescan method relative to control
[24] = target: Serine/threonine-protein kinase NLK (Homo sapiens) (UniProt Q9UBE8); test: Inhibition of wild-type human full length NLK (M13 to E527 residues) expressed in bacterial expression system assessed as residual activity at 50 nM by Kinomescan method relative to control
[25] = target: Phosphatidylinositol 5-phosphate 4-kinase type-2 gamma (Homo sapiens) (UniProt Q8TBX8); test: Inhibition of wild-type human partial length PIP5K2C (M1 to A421 residues) expressed in mammalian expression system assessed as residual activity at 50 nM by Kinomescan method relative to control
[26] = target: T1, Non-receptor tyrosine-protein kinase TYK2; test: Inhibition of wild-type human partial length TYK2 JH2 pseudokinase domain (G556 to D888 residues) expressed in mammalian expression system assessed as residual activity at 50 nM by Kinomescan method relative to control

T1 sequence (P29597 whole entry, the tested form may be a part): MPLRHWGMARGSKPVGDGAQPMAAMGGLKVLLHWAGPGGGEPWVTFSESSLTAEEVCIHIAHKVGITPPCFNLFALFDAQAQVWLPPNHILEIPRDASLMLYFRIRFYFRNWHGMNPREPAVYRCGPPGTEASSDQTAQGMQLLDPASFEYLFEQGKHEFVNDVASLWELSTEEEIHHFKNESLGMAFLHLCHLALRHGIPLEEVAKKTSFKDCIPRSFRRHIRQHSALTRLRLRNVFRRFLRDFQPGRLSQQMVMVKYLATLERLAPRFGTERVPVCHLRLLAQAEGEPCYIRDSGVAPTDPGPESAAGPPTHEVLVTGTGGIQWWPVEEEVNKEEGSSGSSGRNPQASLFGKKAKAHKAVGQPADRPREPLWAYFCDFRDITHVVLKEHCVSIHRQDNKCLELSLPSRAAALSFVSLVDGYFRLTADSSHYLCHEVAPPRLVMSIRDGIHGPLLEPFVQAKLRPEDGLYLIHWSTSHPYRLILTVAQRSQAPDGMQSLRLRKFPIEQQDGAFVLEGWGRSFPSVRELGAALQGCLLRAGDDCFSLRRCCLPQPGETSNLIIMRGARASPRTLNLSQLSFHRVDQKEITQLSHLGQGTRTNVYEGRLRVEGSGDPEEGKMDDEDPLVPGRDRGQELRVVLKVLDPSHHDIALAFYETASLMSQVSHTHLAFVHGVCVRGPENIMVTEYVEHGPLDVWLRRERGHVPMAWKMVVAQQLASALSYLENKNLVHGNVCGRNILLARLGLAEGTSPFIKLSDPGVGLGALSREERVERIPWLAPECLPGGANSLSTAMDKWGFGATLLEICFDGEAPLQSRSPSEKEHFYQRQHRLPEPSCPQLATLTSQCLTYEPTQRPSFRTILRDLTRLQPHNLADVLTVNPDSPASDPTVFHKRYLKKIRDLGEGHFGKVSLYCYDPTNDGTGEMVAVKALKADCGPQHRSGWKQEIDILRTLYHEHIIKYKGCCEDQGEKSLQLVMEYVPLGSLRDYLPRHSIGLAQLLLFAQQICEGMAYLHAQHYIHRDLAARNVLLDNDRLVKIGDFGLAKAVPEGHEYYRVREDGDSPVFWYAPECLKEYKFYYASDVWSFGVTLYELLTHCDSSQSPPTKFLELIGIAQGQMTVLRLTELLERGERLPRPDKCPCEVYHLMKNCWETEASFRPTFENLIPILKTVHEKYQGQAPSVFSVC
Sequence of Aurora kinase B (Homo sapiens) (Q96GD4 whole entry, the tested form may be a part): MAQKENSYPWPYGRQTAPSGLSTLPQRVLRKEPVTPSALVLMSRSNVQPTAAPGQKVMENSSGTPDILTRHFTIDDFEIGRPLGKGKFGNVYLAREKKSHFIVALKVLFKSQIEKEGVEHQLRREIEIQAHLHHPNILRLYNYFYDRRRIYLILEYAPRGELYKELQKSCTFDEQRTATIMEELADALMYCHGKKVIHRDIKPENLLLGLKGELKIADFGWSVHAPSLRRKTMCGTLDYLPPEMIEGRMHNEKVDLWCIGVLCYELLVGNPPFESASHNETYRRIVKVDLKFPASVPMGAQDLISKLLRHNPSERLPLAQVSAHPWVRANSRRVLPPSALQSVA
Sequence of Hepatocyte growth factor receptor (Homo sapiens) (P08581 whole entry, the tested form may be a part): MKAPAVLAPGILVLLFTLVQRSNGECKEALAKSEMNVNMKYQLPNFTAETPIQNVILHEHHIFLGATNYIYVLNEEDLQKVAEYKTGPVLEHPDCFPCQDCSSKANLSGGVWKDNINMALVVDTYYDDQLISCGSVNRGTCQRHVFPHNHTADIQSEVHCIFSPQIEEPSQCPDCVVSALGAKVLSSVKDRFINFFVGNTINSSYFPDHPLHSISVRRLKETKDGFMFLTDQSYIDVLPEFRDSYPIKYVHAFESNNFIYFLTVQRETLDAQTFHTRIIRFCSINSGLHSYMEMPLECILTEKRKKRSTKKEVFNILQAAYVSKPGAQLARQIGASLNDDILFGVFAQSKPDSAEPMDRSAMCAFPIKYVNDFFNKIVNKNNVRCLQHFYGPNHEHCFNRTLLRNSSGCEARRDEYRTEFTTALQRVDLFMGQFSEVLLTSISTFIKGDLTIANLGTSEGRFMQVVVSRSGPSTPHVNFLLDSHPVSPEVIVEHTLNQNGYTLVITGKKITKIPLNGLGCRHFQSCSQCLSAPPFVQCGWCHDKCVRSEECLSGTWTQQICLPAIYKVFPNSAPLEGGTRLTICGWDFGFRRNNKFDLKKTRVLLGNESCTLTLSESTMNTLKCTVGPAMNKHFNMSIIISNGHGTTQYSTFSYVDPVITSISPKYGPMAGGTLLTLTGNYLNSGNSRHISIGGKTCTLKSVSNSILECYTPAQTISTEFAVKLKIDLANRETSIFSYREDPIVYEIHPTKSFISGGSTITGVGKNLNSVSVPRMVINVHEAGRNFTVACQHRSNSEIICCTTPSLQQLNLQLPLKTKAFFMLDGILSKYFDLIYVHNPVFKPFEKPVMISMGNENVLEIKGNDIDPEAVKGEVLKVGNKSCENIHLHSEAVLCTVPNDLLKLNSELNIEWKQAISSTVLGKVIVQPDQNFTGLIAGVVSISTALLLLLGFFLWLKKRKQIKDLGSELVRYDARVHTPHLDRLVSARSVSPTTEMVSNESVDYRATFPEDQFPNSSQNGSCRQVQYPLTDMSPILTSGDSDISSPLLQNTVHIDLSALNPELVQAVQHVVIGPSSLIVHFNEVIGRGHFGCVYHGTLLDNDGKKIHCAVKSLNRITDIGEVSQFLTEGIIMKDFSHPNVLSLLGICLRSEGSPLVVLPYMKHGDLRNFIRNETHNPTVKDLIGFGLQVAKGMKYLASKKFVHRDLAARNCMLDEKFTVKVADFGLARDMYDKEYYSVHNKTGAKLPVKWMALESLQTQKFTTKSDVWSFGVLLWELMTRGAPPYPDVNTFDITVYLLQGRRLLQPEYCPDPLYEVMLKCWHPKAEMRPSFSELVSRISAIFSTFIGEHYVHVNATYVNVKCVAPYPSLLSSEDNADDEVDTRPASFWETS
Sequence of Serine/threonine-protein kinase BRSK2 (Homo sapiens) (Q8IWQ3 whole entry, the tested form may be a part): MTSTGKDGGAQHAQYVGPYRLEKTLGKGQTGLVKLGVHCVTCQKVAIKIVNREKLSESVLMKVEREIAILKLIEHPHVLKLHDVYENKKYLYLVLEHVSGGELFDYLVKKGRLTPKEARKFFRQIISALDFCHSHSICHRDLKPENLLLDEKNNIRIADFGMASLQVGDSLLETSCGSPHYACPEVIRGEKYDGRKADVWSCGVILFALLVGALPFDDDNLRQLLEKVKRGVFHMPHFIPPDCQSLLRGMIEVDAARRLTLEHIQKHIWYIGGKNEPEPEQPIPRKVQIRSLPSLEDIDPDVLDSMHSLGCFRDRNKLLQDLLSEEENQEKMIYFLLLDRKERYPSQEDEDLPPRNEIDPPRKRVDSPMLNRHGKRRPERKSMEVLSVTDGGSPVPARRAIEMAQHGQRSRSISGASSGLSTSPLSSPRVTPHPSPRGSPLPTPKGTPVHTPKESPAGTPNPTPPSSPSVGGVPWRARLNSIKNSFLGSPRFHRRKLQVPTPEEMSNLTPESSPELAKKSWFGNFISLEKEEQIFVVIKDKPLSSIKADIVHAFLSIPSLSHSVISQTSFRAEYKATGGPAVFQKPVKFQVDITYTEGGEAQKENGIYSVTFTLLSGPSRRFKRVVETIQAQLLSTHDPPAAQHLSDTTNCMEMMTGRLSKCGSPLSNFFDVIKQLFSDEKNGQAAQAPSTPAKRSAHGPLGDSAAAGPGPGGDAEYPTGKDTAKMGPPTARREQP
Sequence of Serine/threonine-protein kinase D3 (Homo sapiens) (O94806 whole entry, the tested form may be a part): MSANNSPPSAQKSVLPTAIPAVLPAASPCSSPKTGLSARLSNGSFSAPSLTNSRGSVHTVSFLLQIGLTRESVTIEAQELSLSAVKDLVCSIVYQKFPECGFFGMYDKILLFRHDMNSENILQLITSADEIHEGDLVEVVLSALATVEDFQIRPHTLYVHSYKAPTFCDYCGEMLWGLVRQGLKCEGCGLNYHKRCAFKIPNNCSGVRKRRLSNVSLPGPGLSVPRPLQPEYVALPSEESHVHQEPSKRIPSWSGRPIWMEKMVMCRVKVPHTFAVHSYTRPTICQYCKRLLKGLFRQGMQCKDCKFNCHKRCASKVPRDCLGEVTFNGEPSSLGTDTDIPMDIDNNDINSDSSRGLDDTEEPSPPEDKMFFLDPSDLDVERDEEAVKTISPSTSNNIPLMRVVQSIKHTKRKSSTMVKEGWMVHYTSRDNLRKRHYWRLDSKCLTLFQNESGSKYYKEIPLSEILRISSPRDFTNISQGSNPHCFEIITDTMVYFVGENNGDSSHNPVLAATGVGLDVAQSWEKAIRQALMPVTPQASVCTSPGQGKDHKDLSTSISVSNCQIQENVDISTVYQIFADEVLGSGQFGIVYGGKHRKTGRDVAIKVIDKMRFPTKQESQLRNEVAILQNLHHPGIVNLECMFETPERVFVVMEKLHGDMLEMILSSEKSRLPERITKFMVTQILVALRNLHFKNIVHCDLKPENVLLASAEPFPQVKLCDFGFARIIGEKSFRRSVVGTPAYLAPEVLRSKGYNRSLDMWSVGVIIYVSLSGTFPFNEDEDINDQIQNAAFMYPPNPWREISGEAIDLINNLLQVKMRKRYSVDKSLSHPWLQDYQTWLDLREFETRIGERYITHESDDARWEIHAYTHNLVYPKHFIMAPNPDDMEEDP
Sequence of Activin receptor type-1 (Homo sapiens) (Q04771 whole entry, the tested form may be a part): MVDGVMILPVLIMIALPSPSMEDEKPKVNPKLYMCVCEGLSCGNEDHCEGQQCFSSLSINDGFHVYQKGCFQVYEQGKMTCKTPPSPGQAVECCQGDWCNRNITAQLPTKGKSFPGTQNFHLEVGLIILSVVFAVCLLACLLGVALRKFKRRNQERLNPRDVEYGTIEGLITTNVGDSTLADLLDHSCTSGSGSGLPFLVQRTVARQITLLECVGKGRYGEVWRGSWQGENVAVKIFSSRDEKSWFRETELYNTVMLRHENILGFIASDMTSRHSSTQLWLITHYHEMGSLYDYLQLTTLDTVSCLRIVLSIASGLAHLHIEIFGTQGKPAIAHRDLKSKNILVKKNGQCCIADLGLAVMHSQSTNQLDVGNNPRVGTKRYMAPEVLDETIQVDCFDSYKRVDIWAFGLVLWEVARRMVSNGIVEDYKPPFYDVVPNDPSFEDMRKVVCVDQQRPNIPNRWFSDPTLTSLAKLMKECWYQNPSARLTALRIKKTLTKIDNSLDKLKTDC

| SMILES | IC50 [1] [nM] | Activity [2] [%] | Activity [3] [%] | Activity [4] [%] | Activity [5] [%] | Activity [6] [%] | Activity [7] [%] | Activity [8] [%] | Activity [9] [%] | Activity [10] [%] | Activity [11] [%] | Activity [12] [%] | Activity [13] [%] | Activity [14] [%] | Activity [15] [%] | Activity [16] [%] | Activity [17] [%] | Activity [18] [%] | Activity [19] [%] | Activity [20] [%] | further results |
| --- | --- | --- | --- | --- | --- | --- | --- | --- | --- | --- | --- | --- | --- | --- | --- | --- | --- | --- | --- | --- | --- |
| CC1(C)[C@H](Nc2c(C(N)=O)cnn3cc(-c4ccccc4)cc23)CC[C@]1(C)N | 7.5 | 6.2 | 37 | 48 | 58 | 64 | 66 | 66 | 67 | 72 | 87 | 88 | 88 | 89 | 93 | 96 | 100 | 100 | 100 | 100 | Activity [21]: 100%; Activity [22]: 100%; Activity [23]: 100%; Activity [24]: 100%; Activity [25]: 100%; Activity [26]: 100% |
| COc1ccc(-c2cc3c(N[C@@H]4CC[C@](C)(N)C4(C)C)c(C(N)=O)cnn3c2)cn1 | 25 | 6 | 62 | 75 | 74 | 100 | 100 | 93 | 97 | 100 | 94 | 87 | 96 | 95 | 84 | 73 | 96 | 96 | 88 | 98 | Activity [21]: 100%; Activity [22]: 100%; Activity [23]: 100%; Activity [24]: 71%; Activity [25]: 100%; Activity [26]: 100% |
